Source: patent publication US10570184B2, “GLP-1/glucagon receptor co-agonists for medical use” (Novo Nordisk A/S, priority 2014, dated 2020)
Starred links: 1 amine or outer side, 2 acyl side, 3 side chain; linkers in the order of their positions; H or OH if unused. Non-standard residues stand in square brackets, D forms with d. Residues, ends and D or L forms follow the SMILES beside them. Groups on a side chain read outwards from the residue. *: point of attachment. C18 diacid = O=C(O)CCCCCCCCCCCCCCCCC(=O)*; γGlu = O=C(O)[C@H](CCC(=O)[*:2])N[*:1]; Ac4c = NC1(C(=O)O)CCC1; AEEA = NCCOCCOCC(=O)O

Target: T1, human glucagon receptor (Homo sapiens, UniProt P47871)
T1 construct: expressed in transfected cells; host or cells: membranes of BHK cells, clone BHK hGCGR A3*25
T1 sequence (P47871 26-477): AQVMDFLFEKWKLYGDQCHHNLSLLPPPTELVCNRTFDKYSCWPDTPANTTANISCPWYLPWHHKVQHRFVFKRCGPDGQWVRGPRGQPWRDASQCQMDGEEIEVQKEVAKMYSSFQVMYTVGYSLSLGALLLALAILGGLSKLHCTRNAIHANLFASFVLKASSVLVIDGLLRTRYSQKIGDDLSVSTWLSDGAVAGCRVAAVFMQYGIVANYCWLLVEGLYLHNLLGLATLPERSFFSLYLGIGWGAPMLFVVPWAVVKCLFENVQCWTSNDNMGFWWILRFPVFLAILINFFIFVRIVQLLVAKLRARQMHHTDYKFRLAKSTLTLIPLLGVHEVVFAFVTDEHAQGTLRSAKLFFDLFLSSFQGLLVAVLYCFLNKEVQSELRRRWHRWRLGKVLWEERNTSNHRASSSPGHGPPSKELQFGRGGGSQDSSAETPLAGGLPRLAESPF
Assay: Assay (II)(b) glucagon receptor binding, 125I-glucagon displacement SPA on BHK membranes
Settings: without presence of serum albumin; read-out: GlucagonR IC50 (nM) [Assay (II)(b)]
Protocol: The glucagon receptor (glucagonR) binding activity is a measure of affinity of a derivative for the human glucagon receptor. The receptor binding of each compound to the human glucagon receptor was measured in a displacement binding assay. In this type of assay a labelled ligand (in this case 125I-glucagon) is bound to the receptor. Each derivative was added in a series of concentrations to isolated membranes containing the human glucagon receptor and displacement of the labelled ligand is monitored. The receptor binding was reported as the concentration at which half of the labelled ligand is displaced from the receptor, the IC50 value. In order to test the binding of the derivatives to albumin, the assay may be performed in a very low concentration of serum albumin (max. 0.001% final assay concentration) as well as in the presence of a higher concentration of serum albumin (0.2% final assay concentration). An increase of the IC50 value, in the presence of serum albumin indicates an affinity to serum albumin and represents a method to predict a protracted pharmacokinetic profile of the test substance in animal models. […] The protein concentration was determined. […]

SMILES	IC50 [nM]
CC[C@H](C)[C@H](NC(=O)[C@H](CC(C)C)NC(=O)[C@H](Cc1c[nH]c2ccccc12)NC(=O)[C@H](CCC(N)=O)NC(=O)[C@@H](NC(=O)[C@H](Cc1ccccc1)NC(=O)[C@H](CCC(=O)O)NC(=O)[C@H](CCCNC(=N)N)NC(=O)[C@H](C)NC(=O)[C@H](CCCNC(=N)N)NC(=O)[C@H](CCCNC(=N)N)NC(=O)[C@H](CO)NC(=O)[C@H](CCC(=O)O)NC(=O)[C@H](CC(C)C)NC(=O)[C@H](Cc1ccc(O)cc1)NC(=O)[C@H](CCCCN)NC(=O)[C@H](CO)NC(=O)[C@H](CC(C)C)NC(=O)[C@H](CC(=O)O)NC(=O)[C@H](CO)NC(=O)[C@@H](NC(=O)[C@H](Cc1ccccc1)NC(=O)[C@@H](NC(=O)CNC(=O)[C@H](CCC(N)=O)NC(=O)C1(NC(=O)[C@@H](N)Cc2c[nH]cn2)CCC1)[C@@H](C)O)[C@@H](C)O)C(C)C)C(=O)N[C@@H](CCCCNC(=O)CNC(=O)[C@H](CO)NC(=O)[C@H](CCC(=O)O)NC(=O)CNC(=O)[C@H](CO)NC(=O)CC[C@H](NC(=O)CC[C@H](NC(=O)CCCCCCCCCCCCCCCCC(=O)O)C(=O)O)C(=O)O)C(=O)N[C@H](C(N)=O)[C@@H](C)O [Chem. 16, N^ε28-[2-[[(2S)-2-[[(2S)-4-carboxy-2-[[2-[[(2S)-2-[[(4S)-4-carboxy-4-[[(4S)-4-carboxy-4-(17-carboxyheptadecanoylamino)butanoyl]amino]butanoyl]amino]-3-hydroxypropanoyl]amino]acetyl]amino]butanoyl]amino]-3-hydroxypropanoyl]amino]acetyl]-[Acb2,Leu10,Glu15,Arg20,Glu21,Ile27,Lys28]-Glucagon amide] (HELM PEPTIDE1{H.[O=C(C1(N[*:1])CCC1)[*:2]].Q.G.T.F.T.S.D.L.S.K.Y.L.E.S.R.R.A.R.E.F.V.Q.W.L.I.K.T.[am]}|PEPTIDE2{[O=C(O)CCCCCCCCCCCCCCCCC(=O)[*:2]].[gGlu].[gGlu].S.G.E.S.G}$PEPTIDE1,PEPTIDE2,28:R3-8:R2$$$V2.0)	2.7
CC[C@H](C)[C@H](NC(=O)[C@H](CC(C)C)NC(=O)[C@H](Cc1c[nH]c2ccccc12)NC(=O)[C@H](CCC(N)=O)NC(=O)[C@@H](NC(=O)[C@H](Cc1ccccc1)NC(=O)[C@H](CCC(=O)O)NC(=O)[C@H](CCC(N)=O)NC(=O)[C@H](C)NC(=O)[C@H](CCCNC(=N)N)NC(=O)[C@H](CCCNC(=N)N)NC(=O)[C@H](CO)NC(=O)[C@H](CCC(=O)O)NC(=O)[C@H](CC(C)C)NC(=O)[C@H](Cc1ccc(O)cc1)NC(=O)[C@H](CCCCN)NC(=O)[C@H](CO)NC(=O)[C@H](CC(C)C)NC(=O)[C@H](CC(=O)O)NC(=O)[C@H](CO)NC(=O)[C@@H](NC(=O)[C@H](Cc1ccccc1)NC(=O)[C@@H](NC(=O)CNC(=O)[C@H](CCC(N)=O)NC(=O)C1(NC(=O)[C@@H](N)Cc2c[nH]cn2)CCC1)[C@@H](C)O)[C@@H](C)O)C(C)C)C(=O)N[C@@H](CCCCNC(=O)CC[C@H](NC(=O)COCCOCCNC(=O)COCCOCCNC(=O)CC[C@H](NC(=O)CC[C@H](NC(=O)CCCCCCCCCCCCCCCCC(=O)O)C(=O)O)C(=O)O)C(=O)O)C(=O)N[C@H](C(N)=O)[C@@H](C)O [Chem. 38, N^ε28-[(4S)-4-carboxy-4-[[2-[2-[2-[[2-[2-[2-[[(4S)-4-carboxy-4-[[(4S)-4-carboxy-4-(17-carboxyheptadecanoylamino)butanoyl]amino]butanoyl]amino]ethoxy]ethoxy]acetyl]amino]ethoxy]ethoxy]acetyl]amino]butanoyl]-[Acb2,Leu10,Glu15,Glu21,Ile27,Lys28]-Glucagon amide] (H-H[Ac4c]QGTFTSDLSKYLESRRAQEFVQWLIK([γGlu-AEEA-AEEA-γGlu-γGlu-C18 diacid])T-NH2; N-terminus assumed)	2.7
